{"source": "patent EP0727207A1", "about": "“The pharmacological use of certain cystine derivatives” (priority 1990, dated 1991)", "tested_on": "Balb/c mice", "test": "delayed type hypersensitivity (DTH) reaction in the mouse ear, OXA-sensitized mice", "format": "in vivo", "settings": "for Diff. Tt24-Tt0: ear thickness 24 hours after challenge; for Diff. Tt24-Tt0 / Diff Tt48-Tt0 / Diff Tt24-Tt0: mean; for Diff Tt48-Tt0: ear thickness 48 hours after challenge; for Diff Tt24-Tt0: L-forms", "from_the_text": "The property of the compounds diNAC, diBUT, diVAL, diCAP, diMeNAC, diEtNAC and diMeVAL to stimulate immune responses is illustrated by their efficacy in a model of the delayed type hypersensitivity (DTH) reaction in the mouse.\nBoth male and female Balb/c mice obtained from Bomholtsgaard (Denmark) and Charlie Rivers (England), were used at the weight of 18-20 gram. 4-ethoxymethylene-2-phenyloxazolone (OXA) was purchased from BDH (England) and served as an antigen in this test.\nThe mice were sensitized, Day 0, by epicutaneous application of 150 µl absolute ethanol-acetone (3:1) solution containing 3% OXA on the shaved thorax and abdomen. Treatment with the L-form of diNAC, diMeNAC, diEtNAC, diMeVAL, or vehicle (phosphate buffer, pH 7.0) was initiated by oral feeding immediately after sensitization and continued once daily to Day 6. […] after the sensitization both ears of all mice were challenged on both sides by topical application of 20 µl 1% OXA dissolved in peanut oil. Ear thickness was measured prior to and 24 or 48 hours after challenge using an Oditest spring calliper. Challenges and measurements were performed under light pentobarbital anasthesia. The intensity of the DTH reactions was expressed according to the formula: Tt24/48-Tt0 µm units, where t0, t24 and t48 represent the ear thickness before and 24 or 48 hours after challenge, respectively, in an individual […]. The results were expressed as the mean +/-S.E.M. The level of significance between means of the groups was obtained by Student's two-tailed t-test. Tables 1 and 2 show the results from 24 and 48 hours measurements, respectively, from a representative experiment with the L-form of diNAC. […]", "key": {"[1]": {"settings": "0.03 µmol/kg oral once daily Day 0 to Day 6"}, "[2]": {"settings": "0.30 µmol/kg oral once daily Day 0 to Day 6"}, "[3]": {"settings": "3.0 µmol/kg oral once daily Day 0 to Day 6"}, "[4]": {"settings": "30.0 µmol/kg oral once daily Day 0 to Day 6"}, "[5]": {"settings": "Table 3, 24 h after challenge, 0.03 µmol/kg oral"}, "[6]": {"settings": "Table 3, 24 h after challenge, 3.0 µmol/kg oral"}, "[7]": {"settings": "Table 3, 48 h section, 0.03 µmol/kg oral"}, "[8]": {"settings": "Table 3, 48 h section, 3.0 µmol/kg oral"}}, "data": [{"smiles": "CC(=O)N[C@@H](CSSC[C@H](NC(C)=O)C(=O)O)C(=O)O", "note": "[L-diNAC, N,N'-diacetyl-L-cystine]", "values": [{"measurement": "Diff. Tt24-Tt0", "setting": "[1]", "result": 13.75, "unit": "µm units"}, {"measurement": "Diff. Tt24-Tt0", "setting": "[2]", "result": 15.70, "unit": "µm units"}, {"measurement": "Diff. Tt24-Tt0", "setting": "[3]", "result": 18.30, "unit": "µm units"}, {"measurement": "Diff. Tt24-Tt0", "setting": "[4]", "result": 20.67, "unit": "µm units"}, {"measurement": "Diff Tt48-Tt0", "setting": "[1]", "result": 11.65, "unit": "µm units"}, {"measurement": "Diff Tt48-Tt0", "setting": "[2]", "result": 12.65, "unit": "µm units"}, {"measurement": "Diff Tt48-Tt0", "setting": "[3]", "result": 14.95, "unit": "µm units"}, {"measurement": "Diff Tt48-Tt0", "setting": "[4]", "result": 13.63, "unit": "µm units"}, {"measurement": "ear thickness after oral administration", "setting": "result in words, 24 and 48 hours after challenge, oral", "result": "significant increase of the ear thickness in a concentration-response manner"}]}, {"smiles": "CCCC(=O)N[C@@H](CSSC[C@H](NC(=O)CCC)C(=O)O)C(=O)O", "note": "[diBUT, N,N' - dibutyrylcystine]", "values": [{"measurement": "immunostimulating effect in the DTH reaction in the mouse ear", "setting": "result in words", "result": "highly potent and efficient immunostimulating agents"}]}, {"smiles": "CCCCCCCC(=O)N[C@@H](CSSC[C@H](NC(=O)CCCCCCC)C(=O)O)C(=O)O", "note": "[diCAP, N,N'-dicaprylylcystine]", "values": [{"measurement": "immunostimulating effect in the DTH reaction in the mouse ear", "setting": "result in words", "result": "highly potent and efficient immunostimulating agents"}]}, {"smiles": "CCOC(=O)[C@H](CSSC[C@H](NC(C)=O)C(=O)OCC)NC(C)=O", "note": "[diEtNAC, N,N'-diacetylcystine diethyl ester]", "values": [{"measurement": "Diff Tt24-Tt0", "setting": "[5]", "result": 11.75, "unit": "µm units"}, {"measurement": "Diff Tt24-Tt0", "setting": "[6]", "result": 13.05, "unit": "µm units"}, {"measurement": "Diff Tt24-Tt0", "setting": "[7]", "result": 13.15, "unit": "µm units"}, {"measurement": "Diff Tt24-Tt0", "setting": "[8]", "result": 13.20, "unit": "µm units"}, {"measurement": "immunostimulating effect in the DTH reaction in the mouse ear", "setting": "result in words", "result": "highly potent and efficient immunostimulating agents"}]}, {"smiles": "COC(=O)[C@H](CSSC[C@H](NC(C)=O)C(=O)OC)NC(C)=O", "note": "[diMeNAC, N,N'-diacetylcystine dimethyl ester]", "values": [{"measurement": "Diff Tt24-Tt0", "setting": "[5]", "result": 18.00, "unit": "µm units"}, {"measurement": "Diff Tt24-Tt0", "setting": "[6]", "result": 12.55, "unit": "µm units"}, {"measurement": "Diff Tt24-Tt0", "setting": "[7]", "result": 12.85, "unit": "µm units"}, {"measurement": "Diff Tt24-Tt0", "setting": "[8]", "result": 13.35, "unit": "µm units"}, {"measurement": "immunostimulating effect in the DTH reaction in the mouse ear", "setting": "result in words", "result": "highly potent and efficient immunostimulating agents"}]}, {"smiles": "COC(=O)[C@H](CSSC[C@H](NC(=O)CC(C)C)C(=O)OC)NC(=O)CC(C)C", "note": "[diMeVAL, N,N'-diisovalerylcystine dimethyl ester]", "values": [{"measurement": "immunostimulating effect in the DTH reaction in the mouse ear", "setting": "result in words", "result": "highly potent and efficient immunostimulating agents"}]}, {"smiles": "CC(=O)N[C@@H](CSSC[C@H](NC(C)=O)C(=O)O)C(=O)O", "note": "[diNAC, N,N'-diacetylcystine]", "values": [{"measurement": "immunostimulating effect in the DTH reaction in the mouse ear", "setting": "result in words", "result": "highly potent and efficient immunostimulating agents"}]}, {"smiles": "CC(C)CC(=O)N[C@@H](CSSC[C@H](NC(=O)CC(C)C)C(=O)O)C(=O)O", "note": "[diVAL, N,N'-diisovalerylcystine]", "values": [{"measurement": "immunostimulating effect in the DTH reaction in the mouse ear", "setting": "result in words", "result": "highly potent and efficient immunostimulating agents"}]}]}
